# Patent publication US20240366770A1, “DEGRADATION OF BRUTON'S TYROSINE KINASE (BTK) BY CONJUGATION OF BTK INHIBITORS WITH E3 LIGASE LIGAND AND METHODS OF USE” (BeiGene Switzerland GmbH, priority 2021, published 2024)
# Columns and labels:
# [1] = molecular target: T1, BTK (Homo sapiens, UniProt Q06187); experiment: BTK degradation in TMD-8 cells (HTRF assay); format: cell-based; conditions: 6 h treatment, IC50 (DC50) of BTK degradation
# T1 construct: High control=Cell group with added DMSO and without compound, indicating microplate readings without BTK degradation; endogenous in cells; host or cells: TMD-8
# T1 sequence (Q06187 whole entry): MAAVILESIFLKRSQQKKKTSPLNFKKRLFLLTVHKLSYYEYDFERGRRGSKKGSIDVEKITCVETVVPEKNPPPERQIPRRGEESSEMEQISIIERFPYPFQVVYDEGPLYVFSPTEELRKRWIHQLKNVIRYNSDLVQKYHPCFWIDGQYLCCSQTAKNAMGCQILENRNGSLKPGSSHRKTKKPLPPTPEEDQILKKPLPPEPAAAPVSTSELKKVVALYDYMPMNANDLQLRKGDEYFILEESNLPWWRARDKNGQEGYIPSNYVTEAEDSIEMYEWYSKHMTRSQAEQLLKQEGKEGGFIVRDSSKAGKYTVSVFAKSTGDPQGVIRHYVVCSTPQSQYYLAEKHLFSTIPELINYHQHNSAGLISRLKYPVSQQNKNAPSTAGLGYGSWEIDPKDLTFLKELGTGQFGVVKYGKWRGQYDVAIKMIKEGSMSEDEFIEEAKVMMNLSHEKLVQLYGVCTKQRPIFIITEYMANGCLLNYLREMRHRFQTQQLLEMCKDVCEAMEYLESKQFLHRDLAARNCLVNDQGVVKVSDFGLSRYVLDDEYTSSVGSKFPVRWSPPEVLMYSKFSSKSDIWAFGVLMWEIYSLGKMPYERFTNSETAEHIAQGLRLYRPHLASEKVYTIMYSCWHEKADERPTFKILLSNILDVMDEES
# How it was run: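 TMD-8 cells were exposed for 6 h to 8 compound doses (6-fold serial dilution, 0.2% DMSO). Lysed cells were incubated overnight at room temperature with HTRF antibodies and read at 665/620 nm. DC50 came from four-parameter fitting of % inhibition versus concentration.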
# [2] = tested on: HEK-293 cells; experiment: HEK-293 cytotoxicity detection (CellTiter-Glo); format: cell-based; conditions: Homo sapiens; HEK-293 cells, 72 h incubation, CellTiter-Glo luminescence, IC50 of cell proliferation inhibition; read-out: HEK293
# How it was run: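 HEK-293 cells exposed 72 h to an 8-point, 4-fold dilution series (top 500× stock 5 mM in DMSO; 0.2% DMSO final). Viability by CellTiter-Glo luminescence after 10 min at room temperature; IC50 from four-parameter Hill fit of percent inhibition.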
DC50 [1],Compound,IC50 [2]
9.24 nM,"COc1cc2c(cc1N1CCN(Cc3ccc4c(c3)n(C)c(=O)n4C3CCC(=O)NC3=O)CC1)[nH]c1ncnc(-c3ccc([C@@H](C)NC(=O)c4nc(C(C)(C)C)no4)c(C)c3F)c12 (stereo partly drawn) [Example 71, 3-(tert-butyl)-N-((1R)-1-(4-(7-(4-((1-(2,6-dioxopiperidin-3-yl)-3-methyl-2-oxo-2,3-dihydro-1H-benzo[d]imidazol-5-yl)methyl)piperazin-1-yl)-6-methoxy-9H-pyrimido[4,5-b]indol-4-yl)-3-fluoro-2-methylphenyl)ethyl)-1,2,4-oxadiazole-5-carboxamide]",> 10000 nM
15.9 nM,"COc1cc2c(cc1N1CCN(C3CC(c4ccc([C@H]5CCC(=O)NC5=O)cc4)C3)CC1)[nH]c1ncnc(-c3ccc([C@@H](C)NC(=O)c4nc(C5(C)CC5)no4)c(C)c3F)c12 (stereo partly drawn) [Example 72, N—((R)-1-(4-(7-(4-(3-(4-((R)-2,6-dioxopiperidin-3-yl)phenyl)cyclobutyl)piperazin-1-yl)-6-methoxy-9H-pyrimido[4,5-b]indol-4-yl)-3-fluoro-2-methylphenyl)ethyl)-3-(1-methylcyclopropyl)-1,2,4-oxadiazole-5-carboxamide]",> 10000 nM
1.27 nM,"COc1cc2c(cc1N1CCN(Cc3ccc4c(c3)C(C)(C)C(=O)N4C3CCC(=O)NC3=O)CC1)[nH]c1ncnc(-c3ccc([C@@H](C)NC(=O)c4nc(C(C)(C)C)no4)c(C)c3)c12 (stereo partly drawn) [Example 73, 3-(tert-butyl)-N-((1R)-1-(4-(7-(4-((1-(2,6-dioxopiperidin-3-yl)-3,3-dimethyl-2-oxoindolin-5-yl)methyl)piperazin-1-yl)-6-methoxy-9H-pyrimido[4,5-b]indol-4-yl)-2-methylphenyl)ethyl)-1,2,4-oxadiazole-5-carboxamide]",> 10000 nM
2.04 nM,"COc1cc2c(cc1N1CCN(Cc3ccc4c(c3)C(C)(C)C(=O)N4C3CCC(=O)NC3=O)CC1)[nH]c1ncnc(-c3ccc([C@@H](C)NC(=O)c4nc(C5(C)CC5)no4)c(C)c3)c12 (stereo partly drawn) [Example 74, N-((1R)-1-(4-(7-(4-((1-(2,6-dioxopiperidin-3-yl)-3,3-dimethyl-2-oxoindolin-5-yl)methyl)piperazin-1-yl)-6-methoxy-9H-pyrimido[4,5-b]indol-4-yl)-2-methylphenyl)ethyl)-3-(1-methylcyclopropyl)-1,2,4-oxadiazole-5-carboxamide]",> 10000 nM
> 2000 nM,"COc1cc2c(cc1N1CCN(Cc3ccc(SC4CCC(=O)NC4=O)cc3)CC1)[nH]c1ncnc(-c3ccc([C@@H](C)NC(=O)c4nc(C(C)(C)C)no4)c(C)c3)c12 (stereo partly drawn) [Example 75, 3-(tert-butyl)-N-((1R)-1-(4-(7-(4-(4-((2,6-dioxopiperidin-3-yl)thio)benzyl)piperazin-1-yl)-6-methoxy-9H-pyrimido[4,5-b]indol-4-yl)-2-methylphenyl)ethyl)-1,2,4-oxadiazole-5-carboxamide]",> 10000 nM
1.6 nM,"COc1cc2c(cc1N1CCN(Cc3ccc4c(c3)C3(CC3)C(=O)N4C3CCC(=O)NC3=O)CC1)[nH]c1ncnc(-c3ccc([C@@H](C)NC(=O)c4nc(C(C)(C)C)no4)c(C)c3)c12 (stereo partly drawn) [Example 76, 3-(tert-butyl)-N-((1R)-1-(4-(7-(4-((1′-(2,6-dioxopiperidin-3-yl)-2′-oxospiro[cyclopropane-1,3′-indolin]-5′-yl)methyl)piperazin-1-yl)-6-methoxy-9H-pyrimido[4,5-b]indol-4-yl)-2-methylphenyl)ethyl)-1,2,4-oxadiazole-5-carboxamide]",> 10000 nM
8.48 nM,"COc1cc2c(cc1N1CCN(Cc3ccc(SC4CCC(=O)NC4=O)cc3)CC1)[nH]c1ncnc(-c3ccc([C@@H](C)NC(=O)c4nc(C5(C)CC5)no4)c(C)c3)c12 (stereo partly drawn) [Example 77, N-((1R)-1-(4-(7-(4-(4-((2,6-dioxopiperidin-3-yl)thio)benzyl)piperazin-1-yl)-6-methoxy-9H-pyrimido[4,5-b]indol-4-yl)-2-methylphenyl)ethyl)-3-(1-methylcyclopropyl)-1,2,4-oxadiazole-5-carboxamide]",> 10000 nM
> 2000 nM,"Cc1c([C@@H](C)NC(=O)c2noc(C(C)(C)C)n2)ccc(-c2ncnc3[nH]c4cc(N5CCN(Cc6ccc7c(c6)n(C6CCC(=O)NC6=O)c(=O)n7C)CC5)ccc4c23)c1F (stereo partly drawn) [Example 78, 5-(tert-butyl)-N-((1R)-1-(4-(7-(4-((3-(2,6-dioxopiperidin-3-yl)-1-methyl-2-oxo-2,3-dihydro-1H-benzo[d]imidazol-5-yl)methyl)piperazin-1-yl)-9H-pyrimido[4,5-b]indol-4-yl)-3-fluoro-2-methylphenyl)ethyl)-1,2,4-oxadiazole-3-carboxamide]",> 10000 nM
15.9 nM,"Cc1c([C@@H](C)NC(=O)c2noc(C(C)(C)C)n2)ccc(-c2ncnc3[nH]c4cc(N5CCN(Cc6ccc7c(c6)C6(CC6)C(=O)N7C6CCC(=O)NC6=O)CC5)ccc4c23)c1F (stereo partly drawn) [Example 79, 5-(tert-butyl)-N-((1R)-1-(4-(7-(4-((1′-(2,6-dioxopiperidin-3-yl)-2′-oxospiro[cyclopropane-1,3′-indolin]-5′-yl)methyl)piperazin-1-yl)-9H-pyrimido[4,5-b]indol-4-yl)-3-fluoro-2-methylphenyl)ethyl)-1,2,4-oxadiazole-3-carboxamide]",> 10000 nM
16.6 nM,"Cc1c([C@@H](C)NC(=O)c2noc(C(C)(C)C)n2)ccc(-c2ncnc3[nH]c4cc(N5CCN(CCc6ccc(SC7CCC(=O)NC7=O)cc6)CC5)ccc4c23)c1F (stereo partly drawn) [Example 80, 5-(tert-butyl)-N-((1R)-1-(4-(7-(4-(4-((2,6-dioxopiperidin-3-yl)thio)phenethyl)piperazin-1-yl)-9H-pyrimido[4,5-b]indol-4-yl)-3-fluoro-2-methylphenyl)ethyl)-1,2,4-oxadiazole-3-carboxamide]",> 10000 nM
> 2000 nM,"CN1CCN(CC2CCN(c3ncnc4[nH]c5cc(N6CCN(CC7CCN(c8ccc(N9CCC(=O)NC9=O)cc8)CC7)CC6)ccc5c34)CC2)C1=O [Example 81, 1-(4-(4-((4-(4-(4-((3-methyl-2-oxoimidazolidin-1-yl)methyl)piperidin-1-yl)-9H-pyrimido[4,5-b]indol-7-yl)piperazin-1-yl)methyl)piperidin-1-yl)phenyl)dihydropyrimidine-2,4(1H,3H)-dione]",> 10000 nM
3.17 nM,"Cc1c([C@@H](C)NC(=O)c2noc(C(C)(C)C)n2)ccc(-c2ncnc3[nH]c4cc(N5CCN(CCc6cccc7c6n(C)c(=O)n7C6CCC(=O)NC6=O)CC5)ccc4c23)c1F (stereo partly drawn) [Example 82, 5-(tert-butyl)-N-((1R)-1-(4-(7-(4-(2-(1-(2,6-dioxopiperidin-3-yl)-3-methyl-2-oxo-2,3-dihydro-1H-benzo[d]imidazol-4-yl)ethyl)piperazin-1-yl)-9H-pyrimido[4,5-b]indol-4-yl)-3-fluoro-2-methylphenyl)ethyl)-1,2,4-oxadiazole-3-carboxamide]",> 10000 nM
2.42 nM,"COc1cc2c(cc1N1CCN(Cc3ccc4c(c3)C(C)(C)C(=O)N4C3CCC(=O)NC3=O)CC1)[nH]c1ncnc(-c3cc(C)c([C@@H](C)NC(=O)c4nc(C(C)(C)C)no4)cc3F)c12 (stereo partly drawn) [Example 83, 3-(tert-butyl)-N-((1R)-1-(4-(7-(4-((1-(2,6-dioxopiperidin-3-yl)-3,3-dimethyl-2-oxoindolin-5-yl)methyl)piperazin-1-yl)-6-methoxy-9H-pyrimido[4,5-b]indol-4-yl)-5-fluoro-2-methylphenyl)ethyl)-1,2,4-oxadiazole-5-carboxamide]",> 10000 nM
